“And” between values parts separate entries of the source, which are not always exact repeats. Equal values may be shown once. Toxic doses and inconclusive results are not listed.

The test deals with P388 leukemia ip, CD2F1 mice, survival T/C. The test is described as follows: NCI In Vivo Anticancer Drug Screen. Data for tumor model P388 Leukemia (intraperitoneal) in CD2F1 (CDF1) mice. The note with it: endpoint: median survival time, higher = longer survival. In short, it runs like this: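 Mice carrying the transplanted tumor received test compound or vehicle. Survival was recorded in each group, and the value is the treated-group measurement divided by that of the vehicle-treated control group.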

Where [1] appears, read: dose: 50.0 mg/kg/injection, schedule: Q01DX009 (ip), vehicle: saline with Tween-80.
The mark [2] stands for this setting: dose: 100.0 mg/kg/injection, schedule: Q01DX009 (ip), vehicle: saline with Tween-80.
[3] abbreviates: dose: 50.0 mg/kg/injection, schedule: Q01DX005 (ip), vehicle: Klucel (hydroxypropylcellulose) (HPC).
The mark [4] stands for this setting: dose: 100.0 mg/kg/injection, schedule: Q01DX005 (ip), vehicle: Klucel (hydroxypropylcellulose) (HPC).
Where [5] appears, read: dose: 60.0 mg/kg/injection, schedule: Q01DX005 (ip), vehicle: saline with Tween-80.
Where [6] appears, read: dose: 60.0 mg/kg/injection, schedule: Q01DX005 (ip), vehicle: Klucel (hydroxypropylcellulose) (HPC).
Setting [7] is: dose: 50.0 mg/kg/injection, schedule: Q01DX009 (ip), vehicle: Klucel (hydroxypropylcellulose) (HPC).
[8] abbreviates: dose: 100.0 mg/kg/injection, schedule: Q01DX009 (ip), vehicle: Klucel (hydroxypropylcellulose) (HPC).
Setting [9] is: dose: 200.0 mg/kg/injection, schedule: Q01DX009 (ip), vehicle: Klucel (hydroxypropylcellulose) (HPC).
Setting [10] is: dose: 50.0 mg/kg/injection, schedule: Q01DX005 (ip), vehicle: saline with Tween-80.
Where [11] appears, read: dose: 50.0 mg/kg/injection, schedule: Q01DX009 (ip), vehicle: saline.
Where [12] appears, read: dose: 15.0 mg/kg/injection, schedule: Q01DX005 (ip), vehicle: saline with Tween-80.
The mark [13] stands for this setting: dose: 25.0 mg/kg/injection, schedule: Q01DX005 (ip), vehicle: Klucel (hydroxypropylcellulose) (HPC).
Setting [14] is: dose: 100.0 mg/kg/injection, schedule: Q04DX003 (ip), vehicle: saline with Tween-80.
[15] abbreviates: dose: 0.78 mg/kg/injection, schedule: Q01DX009 (ip), vehicle: water.

With `COC(=O)c1ccc(SCCC(C)=O)cc1`, the T/C is 99 % of control under setting [1]; 106 % of control under setting [2]; 101 % of control (dose: 200.0 mg/kg/injection, schedule: Q01DX009 (ip), vehicle: saline with Tween-80).
As for `CN(C)C1=CC(=O)NC(c2ccccc2)C1` (stereo not drawn), the T/C was 102 % of control under setting [3]; 99 % of control under setting [4]; 99 % of control (dose: 200.0 mg/kg/injection, schedule: Q01DX005 (ip), vehicle: Klucel (hydroxypropylcellulose) (HPC)).
Regarding `Cc1ccc2c(c1)C1(SC(C)C(=O)N1c1ccc(F)cc1)C(=O)N2` (stereo not drawn), the T/C is, setting by setting: under setting [5], 89 % of control; (dose: 120.0 mg/kg/injection, schedule: Q01DX005 (ip), vehicle: saline with Tween-80) 90 % of control; (dose: 240.0 mg/kg/injection, schedule: Q01DX005 (ip), vehicle: saline with Tween-80) 87 % of control.
In the case of `COc1ccc(CCCc2cc3c(cc2OC)OCO3)cc1`, the T/C reads like this: under setting [6], 100 % of control; (dose: 120.0 mg/kg/injection, schedule: Q01DX005 (ip), vehicle: Klucel (hydroxypropylcellulose) (HPC)) 100 % of control; (dose: 240.0 mg/kg/injection, schedule: Q01DX005 (ip), vehicle: Klucel (hydroxypropylcellulose) (HPC)) 97 % of control.
As for `CCCCCC(CC(=O)O)C(N)C(=O)O` (stereo not drawn), the T/C reads like this: under setting [7], 104 % of control; under setting [8], 103 % of control; under setting [9], 99 % of control.
As for `C1=C2OCOC2=CC2Cc3cc4c(cc3/C=C3\CC5=C(C=C3/C=C/12)OCO5)OCO4` (stereo not drawn), the T/C is, setting by setting: under setting [10], 92 % of control; (dose: 100.0 mg/kg/injection, schedule: Q01DX005 (ip), vehicle: saline with Tween-80) 93 % of control; (dose: 200.0 mg/kg/injection, schedule: Q01DX005 (ip), vehicle: saline with Tween-80) 98 % of control.
Regarding `COc1c(C)n(C2OC(CO)C(O)C2O)ccc1=O` (stereo not drawn), the T/C is 104 % of control under setting [11]; 100 % of control (dose: 100.0 mg/kg/injection, schedule: Q01DX009 (ip), vehicle: saline); 103 % of control (dose: 200.0 mg/kg/injection, schedule: Q01DX009 (ip), vehicle: saline); 98 % of control (dose: 400.0 mg/kg/injection, schedule: Q01DX009 (ip), vehicle: saline).
As for `O=S(=O)(O)CC(O)CN(CCO)CCO` (stereo not drawn), the T/C (dose: 60.0 mg/kg/injection, schedule: Q01DX005 (ip), vehicle: saline) is 108 % of control; the T/C (dose: 120.0 mg/kg/injection, schedule: Q01DX005 (ip), vehicle: saline) was 102 % of control; the T/C (dose: 240.0 mg/kg/injection, schedule: Q01DX005 (ip), vehicle: saline) is 100 % of control.
Consider `Cc1cccc(Cl)c1NCCN1CCCC1`, for which the T/C by setting is: under setting [12], 103 % of control; (dose: 30.0 mg/kg/injection, schedule: Q01DX005 (ip), vehicle: saline with Tween-80) 101 % of control; under setting [5], 106 % of control and 108 % of control.
As to `Nc1nc(Cl)c2[nH]c(Cl)nc2n1`, the T/C (dose: 12.5 mg/kg/injection, schedule: Q01DX005 (ip), vehicle: Klucel (hydroxypropylcellulose) (HPC)) is 104 % of control; the T/C under setting [13] is 102 % of control; the T/C under setting [3] was 100 % of control and 96 % of control; the T/C under setting [4] was 99 % of control.
With `O=[N+]([O-])c1ccc2c(c1)SC1=NN3C(O)COC(OCc4ccccc4)C3N12` (stereo not drawn), the T/C was 97 % of control (dose: 100.0 mg/kg/injection, schedule: Q04DX002 (ip), vehicle: saline); 100 % of control (dose: 200.0 mg/kg/injection, schedule: Q04DX002 (ip), vehicle: saline); 93 % of control (dose: 400.0 mg/kg/injection, schedule: Q04DX002 (ip), vehicle: saline).
On to `Cc1ccc(S(=O)(=O)Nc2ccc3ncccc3c2)cc1`, for which the T/C reads like this: under setting [14], 99 % of control; (dose: 200.0 mg/kg/injection, schedule: Q04DX003 (ip), vehicle: saline with Tween-80) 98 % of control.
As for `COc1cc2cc(-c3ccc(Cl)c(Cl)c3)[n+](C)cc2cc1OC`, the T/C runs as follows: (dose: 12.5 mg/kg/injection, schedule: Q01DX009 (ip), vehicle: saline) 106 % of control; (dose: 25.0 mg/kg/injection, schedule: Q01DX009 (ip), vehicle: saline) 94 % of control; under setting [11], 98 % of control.
Take `CC(C)(c1ccccc1)c1ccc(O)cc1`: the T/C is 100 % of control (dose: 25.0 mg/kg/injection, schedule: Q01DX009 (ip), vehicle: saline with Tween-80); 100 % of control under setting [1]; 100 % of control under setting [2]; 90 % of control under setting [14].
As to `CC1CCCC(C)N1CC#CCNC(=O)C1CCC(=O)N1` (stereo not drawn), the T/C reads like this: under setting [13], 100 % of control; under setting [3], 102 % of control; under setting [4], 121 % of control.
Turning to `CC(C)=CC[P+](CCCC[P+](CC=C(C)C)(c1ccccc1)c1ccccc1)(c1ccccc1)c1ccccc1`, the T/C was 100 % of control (dose: 1.56 mg/kg/injection, schedule: Q04DX003 (ip), vehicle: saline) and 101 % of control (dose: 3.12 mg/kg/injection, schedule: Q04DX003 (ip), vehicle: saline).
Take `CCCCN(CCCC)CCC(=O)c1ccc(Cl)c2ccccc12`: the T/C reads like this: (dose: 25.0 mg/kg/injection, schedule: Q01DX005 (ip), vehicle: saline with Tween-80) 97 % of control; under setting [10], 105 % of control.
With `Cc1cc[n+](C2=C(Nc3cccc(C(F)(F)F)c3)C(=O)c3ccccc3C2=O)cc1`, the T/C runs as follows: (dose: 3.75 mg/kg/injection, schedule: Q01DX005 (ip), vehicle: saline with Tween-80) 105 % of control; (dose: 7.5 mg/kg/injection, schedule: Q01DX005 (ip), vehicle: saline with Tween-80) 119 % of control; under setting [12], 105 % of control.
As for `CN1CCC/C1=C\C(=O)c1ccco1`, the T/C is 100 % of control (dose: 15.0 mg/kg/injection, schedule: Q01DX005 (ip), vehicle: Klucel (hydroxypropylcellulose) (HPC)); 103 % of control (dose: 30.0 mg/kg/injection, schedule: Q01DX005 (ip), vehicle: Klucel (hydroxypropylcellulose) (HPC)); 109 % of control and 89 % of control under setting [6].
For the molecule `COc1cccc2c1C(=O)c1c(O)c3c(c(O)c1C2=O)C[C@@](O)(C(=O)CSc1ccccc1)C[C@@H]3OC1CC(N)C(O)C(C)O1` (stereo partly drawn), the T/C under setting [15] is 122 % of control; the T/C (dose: 12.5 mg/kg/injection, schedule: Q01DX009 (ip), vehicle: water) is 99 % of control and 91 % of control.
Turning to `CCCCCCCCCCCCCCCCCC(=O)OCC(=O)OCC(=O)[C@]1(O)Cc2c(O)c3c(c(O)c2[C@@H](OC2CC(N)C(O)C(C)O2)C1)C(=O)c1c(OC)cccc1C3=O` (stereo partly drawn), the T/C reads like this: (dose: 0.39 mg/kg/injection, schedule: Q01DX009 (ip), vehicle: water) 150 % of control; under setting [15], 157 % of control; (dose: 1.56 mg/kg/injection, schedule: Q01DX009 (ip), vehicle: water) 180 % of control and 194 % of control; (dose: 3.13 mg/kg/injection, schedule: Q01DX009 (ip), vehicle: water) 200 % of control and 203 % of control; (dose: 6.25 mg/kg/injection, schedule: Q01DX009 (ip), vehicle: water) 93 % of control and 98 % of control.
On to `CC(CC(=O)c1ccccc1)=Nc1ccccc1`, for which the T/C is 110 % of control (dose: 100.0 mg/kg/injection, schedule: Q01DX001 (ip), vehicle: saline sonified); 100 % of control (dose: 200.0 mg/kg/injection, schedule: Q01DX001 (ip), vehicle: saline sonified); 100 % of control (dose: 400.0 mg/kg/injection, schedule: Q01DX001 (ip), vehicle: saline sonified).
With `C[N+](C)(C)C.O=C([CH-]C(=O)C(F)(F)F)c1ccccc1.O=C([CH-]C(=O)C(F)(F)F)c1ccccc1.O=C([CH-]C(=O)C(F)(F)F)c1ccccc1.O=C([CH-]C(=O)C(F)(F)F)c1ccccc1.[Eu+3]`, the T/C was 99 % of control (dose: 25.0 mg/kg/injection, schedule: Q01DX009 (ip), vehicle: Klucel (hydroxypropylcellulose) (HPC)); 106 % of control and 113 % of control under setting [7]; 103 % of control under setting [1]; 112 % of control and 117 % of control under setting [8]; 99 % of control under setting [2]; 113 % of control under setting [9].
